Consider one compound from patent US5739158A, “Nitrogen-containing cyclohetero cycloalkylaminoaryl derivatives for CNS disorders” (The United States of America as represented by the …, priority 1992, dated 1998).

Experiment [1] deals with apomorphine-induced climbing. The experiment can be described thus: Blockage of apomorphine-induced climbing. It counts as in vivo, mouse (Swiss-Webster). As to conditions: 10 mg/kg; apomorphine 2 mg/kg s.c.; i.p. or s.c. pretreatment. The method, then:
Compounds of the invention were evaluated for their ability to block apomorphine-induced climbing. The evaluation of the compounds followed the method outlined by Protais [Psychopharmcol., 50, 1-6, 1976]. Swiss-Webstermice, weighing 20-25 g, are pretreated with the compounds of the invention by i.p. or s.c. administration at various times before 2 mg/kg apomorphine is administered s.c. in a volume of 1 ml/kg. All test compounds are administered in a volume of 10 ml/kg. Mice are rated at 10 and 20 minutes after apomorphine administration using the following rating scale: (0) forepaws on the floor, (1) forefeet holding the bars, and (2) four paws holding bars. Dose-response curves are analyzed by a computerized Finney assay [Statistical Methods in Biological Assays, 2nd Edn., Hatner Pub. Co., New York (1964)].

For experiment [2], the system named is CA1 region of the hippocampus. As to the kind of experiment: Forebrain ischemia assay (bilateral carotid occlusion). It counts as in vivo, Mongolian gerbil. Conditions: 50 mg/kg i.p. 30 minutes prior to carotid occlusion (15 min); 7 days; p<0.01. The protocol: Male Mongolian gerbils, 50-70 gm, were used as subjects. Compound No. 8 (50 mg/kg) was injected i.p. 30 minutes prior to carotid occlusion into 6 gerbils. In preparation for surgical procedures, the animals were lightly anesthetized with halothane and placed upside down on a heated pad with their snout within a nosecone. Nitrous oxide (70%): oxygen (30%) plus 0.5% halothane was circulated through the nosecone to provide continuous anesthesia throughout the surgical procedure. A midline incision was made in the neck and the carotid arteries were exposed. A length of suture thread was placed under each carotid. The thread was then tightened around each carotid and pressure applied to the thread to insure flow as occluded. Flow was occluded for 15 minutes and then the thread was removed. The carotids were visually inspected to confirm that reflow had occurred. The wound was then closed with autoclips and the gerbils allowed to recover. Following surgery, the gerbils were kept alive for 7 days. […] The degree of lesion in the CA1 region of the hippocampus was quantified by counting the pyramidal cell bodies in a 0.5 mm length of CA1 on the section corresponding to P 1.7 mm in the atlas of Loskota, Lnax and Verity [W. J. Loskota et al, A Stereotaxic Atlas of the Mongolian Gerbil Brain, Ann Arbor Science Publishers, Ann Arber, p. […]

A further experiment concerns the target T1, sigma receptor (Rattus norvegicus, UniProt Q9R0C9).
T1 construct: Brains from male Sprague-Dawley rats were homogenized; from tissue; host or cells: rat brain crude membranes (male Sprague-Dawley)
The experiment can be described thus: Radioreceptor assay in rat brain homogenate, displacement of [3H]-(+)-3-PPP. It counts as binding. As to conditions: rat brain membranes; 2 nM [3H]-(+)-3-PPP; 1 hr, room temperature; units ± SEM; read-out: Ki apparent. The protocol: Acad. Sci., 83, 8784-8788, 1986] to determine the relative potency of the compounds interacting with the sigma receptor. To determine the effects of the compounds in a sigma receptor assay, crude membrane preparations were prepared as follows. Brains from male Sprague-Dawley rats were homogenized in 10 volumes (wt/vol) of 0.32M sucrose, using a Polytron grinder. The homogenate was centrifuged at 900×G for 10 minutes at 4° C. The supernatant was collected and centrifuged at 22,000×g for 20 minutes at 4° C. The pellet was resuspended in 10 volumes of 50 mM Tris/HCl buffer (pH 7.4) and centrifuged at 22,000×g for 20 minutes at 4° C. The pellet was resuspended in 5 mM Tris/HCl buffer (pH 7.4) to give a final concentration of 250 mg/ml of the crude material. Incubation tubes were prepared in triplicate and contained 0.1 ml of tissue suspension, 2 nM of [^3 H]-(+)-1-propyl-3-(3-hydroxyphenyl)piperidine {[^3 H]-3-(+)-PPP}, and varying concentrations of the displacing ligand (0.1-1000 nM) in a final volume of 0.5 ml. After a 1 hr incubation at room temperature, the contents of the test tubes were filtered through GS filter paper which had been presoaked for at least 2 hours in 0.05% polyethyleneamine. The test tubes were rinsed three times with Tris/HCl buffer. Radioactivity on the filters was determined and […] were calculated from inhibition curves using the method of Cheng and Prusoff [Biochem. Pharmacol., 22, 3099-3108, 1973].
(In a radioligand displacement assay an active substance lowers the binding of a labelled ligand.)

The target of a further experiment is T2, sigma receptors (Cavia porcellus, UniProt Q60492).
T2 construct: crude synaptosomal (P2) membrane fraction of guinea pig brain for sigma receptors; tissue Pel-Freeze, Rogers, Ak; host or cells: guinea pig brain minus cerebellum, crude synaptosomal (P2) membranes
As to the kind of experiment: Radioreceptor assay in guinea pig brain homogenate (P2 membranes), [3H]-(+)-3-PPP. It counts as binding.

T2 sequence (Q60492 whole entry): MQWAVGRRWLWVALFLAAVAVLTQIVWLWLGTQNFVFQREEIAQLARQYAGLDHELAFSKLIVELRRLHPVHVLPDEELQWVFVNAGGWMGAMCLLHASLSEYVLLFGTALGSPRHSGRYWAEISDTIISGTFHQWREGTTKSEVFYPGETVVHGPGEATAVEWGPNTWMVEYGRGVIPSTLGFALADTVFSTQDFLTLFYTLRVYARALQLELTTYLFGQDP
T1 sequence (Q9R0C9 whole entry): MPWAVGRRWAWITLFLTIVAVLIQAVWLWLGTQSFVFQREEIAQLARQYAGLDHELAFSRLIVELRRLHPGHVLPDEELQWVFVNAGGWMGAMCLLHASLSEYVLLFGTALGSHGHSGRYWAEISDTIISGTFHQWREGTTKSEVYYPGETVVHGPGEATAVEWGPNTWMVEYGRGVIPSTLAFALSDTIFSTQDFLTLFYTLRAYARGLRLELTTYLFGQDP

In the case of `CN(CCc1ccc(Cl)c(Cl)c1)[C@@H]1CCCC[C@@H]1N1CCCC1` [Compound No. 8, 1R,2S-(+)-cis-N-[2-(3,4-dichlorophenyl)ethyl]-N-methyl-2-(1-pyrrolidinyl)cyclohexylamine], the “Blockage of apomorphine-induced climbing” value in experiment [1] is reported as “completely blocked”. In addition, the “Cell loss in CA1 region of hippocampus” value in experiment [2] is on record as “significantly reduced”. Also, the Ki was 20 ± 1 nM at sigma receptor and 6 ± 3 nM on sigma receptors.
